pIC50: −log10 of the molar value. Like-named read-outs stand apart in the source and are kept apart here.
Biological target: Xanthine oxidase (Homo sapiens (Human), UniProt P47989)
Experiment: Fluorescence-based xanthine oxidase activity assay
Type: biochemical
Details: for IC50: unit nM, read-out: Xanthine Oxidase IC50; for Xanthine oxidase inhibition, verbal rating: compared to allopurinol

Xanthine oxidase, sequence (P47989 whole entry, species assumed): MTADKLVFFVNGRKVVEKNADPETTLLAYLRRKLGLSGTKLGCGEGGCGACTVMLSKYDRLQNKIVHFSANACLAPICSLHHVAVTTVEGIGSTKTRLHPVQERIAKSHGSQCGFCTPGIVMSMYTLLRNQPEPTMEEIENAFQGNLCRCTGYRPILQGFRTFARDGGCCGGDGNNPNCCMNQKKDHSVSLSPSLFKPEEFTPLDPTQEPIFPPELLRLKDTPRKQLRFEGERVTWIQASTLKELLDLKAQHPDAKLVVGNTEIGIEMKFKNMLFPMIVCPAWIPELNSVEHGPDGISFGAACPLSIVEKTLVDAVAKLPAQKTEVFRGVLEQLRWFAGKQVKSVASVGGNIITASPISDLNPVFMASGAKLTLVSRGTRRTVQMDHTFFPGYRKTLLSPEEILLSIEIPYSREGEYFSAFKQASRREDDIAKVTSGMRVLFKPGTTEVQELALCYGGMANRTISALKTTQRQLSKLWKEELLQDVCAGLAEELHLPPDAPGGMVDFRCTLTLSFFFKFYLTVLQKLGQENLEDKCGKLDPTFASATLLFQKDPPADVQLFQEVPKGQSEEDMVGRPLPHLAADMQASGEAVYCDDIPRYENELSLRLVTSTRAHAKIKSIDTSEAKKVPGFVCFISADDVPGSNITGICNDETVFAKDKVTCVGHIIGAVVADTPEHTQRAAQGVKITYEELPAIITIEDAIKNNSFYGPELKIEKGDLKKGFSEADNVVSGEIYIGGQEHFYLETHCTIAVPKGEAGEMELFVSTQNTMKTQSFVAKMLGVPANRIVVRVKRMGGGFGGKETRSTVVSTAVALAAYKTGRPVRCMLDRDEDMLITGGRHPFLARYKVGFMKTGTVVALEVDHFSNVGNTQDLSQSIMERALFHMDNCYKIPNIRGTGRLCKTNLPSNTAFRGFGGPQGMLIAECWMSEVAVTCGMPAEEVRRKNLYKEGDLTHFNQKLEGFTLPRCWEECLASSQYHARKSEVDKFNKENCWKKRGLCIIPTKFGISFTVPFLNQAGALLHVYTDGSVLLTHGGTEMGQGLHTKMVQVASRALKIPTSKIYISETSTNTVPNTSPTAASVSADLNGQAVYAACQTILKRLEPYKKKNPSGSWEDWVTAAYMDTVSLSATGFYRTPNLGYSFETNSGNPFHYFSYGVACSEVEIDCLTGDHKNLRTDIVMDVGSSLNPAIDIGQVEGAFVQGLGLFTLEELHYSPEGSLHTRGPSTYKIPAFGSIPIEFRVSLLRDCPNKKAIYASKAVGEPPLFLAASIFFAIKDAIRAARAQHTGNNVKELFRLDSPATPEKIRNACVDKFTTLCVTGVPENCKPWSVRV

CSc1nc(O)c(C(=O)Nc2ccc(-c3c[nH]nn3)cc2OC(F)(F)F)c(=O)[nH]1 [Formula (II3), N-(4-(1H-1,2,3-triazol-4-yl)-2-(trifluoromethoxy)phenyl)-4-hydroxy-2-(methylthio)-6-oxo-1,6-dihydropyrimidine-5-carboxamide]
pIC50: 7.22

CSc1nc(O)c(C(=O)Nc2ccc(-c3c[nH]nn3)cc2OC(F)F)c(=O)[nH]1 [Formula (II4), N-(2-(difluoromethoxy)-4-(1H-1,2,3-triazol-4-yl)phenyl)-4-hydroxy-2-(methylthio)-6-oxo-1,6-dihydropyrimidine-5-carboxamide]
pIC50: 7.22

CSc1nc(O)c(C(=O)Nc2ccc(-c3c[nH]nn3)cc2C#N)c(=O)[nH]1 [Formula (II5), N-(2-cyano-4-(1H-1,2,3-triazol-4-yl)phenyl)-4-hydroxy-2-(methylthio)-6-oxo-1,6-dihydropyrimidine-5-carboxamide]
pIC50: 7.40

CSc1nc(O)c(C(=O)Nc2ccc(-c3c[nH]nn3)c(C(F)(F)F)c2)c(=O)[nH]1 [Formula (II6), N-(4-(1H-1,2,3-Triazol-4-yl)-3-(trifluoromethyl)phenyl)-4-hydroxy-2-(methylthio)-6-oxo-1,6-dihydropyrimidine-5-carboxamide]
IC50: > 10000 nM

CC(C)Sc1nc(O)c(C(=O)Nc2ccc(-c3c[nH]nn3)cc2C(F)(F)F)c(=O)[nH]1 [Formula (II7), N-(4-(1H-1,2,3-Triazol-5-yl)-2-(trifluoromethyl)phenyl)-4-hydroxy-2-(isopropyl-thio)-6-oxo-1,6-dihydropyrimidine-5-carboxamide]
pIC50: 7.15

CSc1nc(O)c(C(=O)Nc2ncc(-c3c[nH]nn3)cc2C(F)(F)F)c(=O)[nH]1 [Formula (II8), N-(5-(1H-1,2,3-triazol-4-yl)-3-(trifluoromethyl)pyridin-2-yl)-4-hydroxy-2-(methylthio)-6-oxo-1,6-dihydropyrimidine-5-carboxamide]
pIC50: 7.22

CSc1nc(O)c(C(=O)Nc2ccc3nc(-c4c[nH]nn4)ccc3c2)c(=O)[nH]1 [Formula (II10), N-(2-(1H-1,2,3-triazol-4-yl)quinolin-6-yl)-4-hydroxy-2-(methylthio)-6-oxo-1,6-dihydropyrimidine-5-carboxamide]
pIC50: 6.72

CSc1nc(O)c(C(=O)Nc2ccc(-c3c[nH]nn3)c(F)c2F)c(=O)[nH]1 [Formula (IIaa), N-(2,3-difluoro-4-(1H-1,2,3-triazol-4-yl)phenyl)-4,6-dihydroxy-2-(methylthio) pyrimidine-5-carboxamide]
pIC50: 6.99

CN(C)CCSc1nc(O)c(C(=O)Nc2ccc(-c3c[nH]nn3)cc2F)c(=O)[nH]1 [Formula (IIbb), 2-((2-(dimethylamino)ethyl)thio)-N-(2-fluoro-4-(1H-1,2,3-triazol-4-yl)phenyl)-4-hydroxy-6-oxo-1,6-dihydropyrimidine-5-carboxamide]
pIC50: 6.69

CC(C)Sc1nc(O)c(C(=O)Nc2ccc(-c3c[nH]nn3)cc2)c(=O)[nH]1 [Formula (IIi), N-(4-(1H-1,2,3-triazol-5-yl)phenyl)-4-hydroxy-2-(isopropylthio)-6-oxo-1,6-dihydropyrimidine-5-carboxamide]
Xanthine oxidase inhibition, verbal rating: particularly potent inhibitors of xanthine oxidase compared to allopurinol
IC50: < 20 nM

CSc1nc(O)c(C(=O)Nc2ccc(-c3c[nH]nn3)nc2)c(=O)[nH]1 [Formula (IIii), N-(6-(1H-1,2,3-triazol-4-yl)pyridin-3-yl)-4-hydroxy-2-(methylthio)-6-oxo-1,6-dihydropyrimidine-5-carboxamide]
pIC50: 6.42
Xanthine oxidase inhibition, verbal rating: particularly potent inhibitors of xanthine oxidase compared to allopurinol

O=C(Nc1ccc(-c2c[nH]nn2)cc1)c1c(O)nc(SC(F)(F)F)[nH]c1=O [Formula (IIj)]
IC50: > 300000 nM

CCSc1nc(O)c(C(=O)Nc2ccc(-c3c[nH]nn3)cc2)c(=O)[nH]1 [Formula (IIl), N-(4-(1H-1,2,3-triazol-4-yl)phenyl)-2-(ethylthio)-4-hydroxy-6-oxo-1,6-dihydropyrimidine-5-carboxamide]
Xanthine oxidase inhibition, verbal rating: particularly potent inhibitors of xanthine oxidase compared to allopurinol
IC50: < 20 nM

O=C(Nc1ccc(-c2c[nH]nn2)cc1)c1c(O)nc(SCC2CC2)[nH]c1=O [Formula (IIo), N-(4-(1H-1,2,3-triazol-4-yl)phenyl)-2-((cyclopropylmethyl)thio)-4,6-dioxo-1,4,5,6-tetrahydropyrimidine-5-carboxamide]
pIC50: 5.94

CCSc1nc(O)c(C(=O)Nc2ccc(-c3nn[nH]n3)cc2)c(=O)[nH]1 [Formula (IIp), N-(4-(1H-tetrazol-5-yl)phenyl)-2-(ethylthio)-4-hydroxy-6-oxo-1,6-dihydropyrimidine-5-carboxamide]
pIC50: 6.70
Xanthine oxidase inhibition, verbal rating: particularly potent inhibitors of xanthine oxidase compared to allopurinol

CC(C)CSc1nc(O)c(C(=O)Nc2ccc(-c3c[nH]nn3)cc2)c(=O)[nH]1 [Formula (IIq), N-(4-(1H-1,2,3-triazol-4-yl)phenyl)-4-hydroxy-2-(isobutylthio)-6-oxo-1,6-dihydropyrimidine-5-carboxamide]
pIC50: 7.40
Xanthine oxidase inhibition, verbal rating: particularly potent inhibitors of xanthine oxidase compared to allopurinol

CSc1nc(O)c(C(=O)Nc2ccc(-c3c[nH]nn3)c(F)c2)c(=O)[nH]1 [Formula (IIr), N-(3-Fluoro-4-(1H-1,2,3-triazol-4-yl)phenyl)-4-hydroxy-2-(methylthio)-6-oxo-1,6-dihydropyrimidine-5-carboxamide]
pIC50: 6.68
Xanthine oxidase inhibition, verbal rating: particularly potent inhibitors of xanthine oxidase compared to allopurinol

CSc1nc(O)c(C(=O)Nc2ccc(-c3c[nH]nn3)cc2F)c(=O)[nH]1 [Formula (IIs), N-(2-Fluoro-4-(1H-1,2,3-triazol-4-yl)phenyl)-4-hydroxy-2-(methylthio)-6-oxo-1,6-dihydropyrimidine-5-carboxamide]
pIC50: 6.92
Xanthine oxidase inhibition, verbal rating: particularly potent inhibitors of xanthine oxidase compared to allopurinol

CSc1nc(O)c(C(=O)Nc2c(F)cc(-c3c[nH]nn3)cc2F)c(=O)[nH]1 [Formula (IIt), N-(2,6-Difluoro-4-(1H-1,2,3-triazol-4-yl)phenyl)-4-hydroxy-2-(methylthio)-6-oxo-1,6-dihydropyrimidine-5-carboxamide]
pIC50: 6.74
Xanthine oxidase inhibition, verbal rating: particularly potent inhibitors of xanthine oxidase compared to allopurinol

CC(C)Sc1nc(O)c(C(=O)Nc2ccc(-c3c[nH]nn3)cc2F)c(=O)[nH]1 [Formula (IIv), N-(2-Fluoro-4-(1H-1,2,3-triazol-4-yl)phenyl)-4-hydroxy-2-(isopropylthio)-6-oxo-1,6-dihydropyrimidine-5-carboxamide]
pIC50: 7.00

CC(C)Sc1nc(O)c(C(=O)Nc2ccc(-c3c[nH]nn3)c(F)c2)c(=O)[nH]1 [Formula (IIw), N-(3-Fluoro-4-(1H-1,2,3-triazol-4-yl)phenyl)-4-hydroxy-2-(isopropylthio)-6-oxo-1,6-dihydropyrimidine-5-carboxamide]
pIC50: 6.18

O=C(Nc1ncc(-c2c[nH]nn2)s1)c1c(O)[nH]c(=O)[nH]c1=O [Formula (Io), N-(5-(1H-1,2,3-Triazol-4-yl)thiazol-2-yl)-2,4,6-trihydroxypyrimidine-5-carboxamide]
pIC50: 5.28

— US11020397B2, “Compounds and their use for reducing uric acid levels” (Acquist LLC, priority 2016, dated 2021)
